*1 amine or outer side, *2 acyl side, *3 side chain or, on linkers, in order; H or OH if unused. Where a SMILES comes first, the peptide text is derived from it. Bridges are numbered along the chain shown (N, C = ends). [ ]: non-standard residue; d: D form. The star is where a group is joined. C20 diacid = O=C(O)CCCCCCCCCCCCCCCCCCC(=O)*; γGlu = O=C(O)[C@H](CCC(=O)[*:2])N[*:1]; Hyp = O=C(O)[C@@H]1C[C@@H](O)CN1; NMeI = CC[C@H](C)[C@H](NC)C(=O)O; Sar = CNCC(=O)O
How the values were obtained:
[1] = target: T1, human calcitonin receptor (hCTR2) (Homo sapiens, UniProt P30988); test: hCTR2 cAMP assay (AlphaScreen) in COS7 cells; type: cell-based; details: cAMP induction, COS7 cells expressing hCTR2; Table 1; read-out: hCTR2 EC50
T1 construct: expressed in transfected cells
T1 sequence (P30988 25-474): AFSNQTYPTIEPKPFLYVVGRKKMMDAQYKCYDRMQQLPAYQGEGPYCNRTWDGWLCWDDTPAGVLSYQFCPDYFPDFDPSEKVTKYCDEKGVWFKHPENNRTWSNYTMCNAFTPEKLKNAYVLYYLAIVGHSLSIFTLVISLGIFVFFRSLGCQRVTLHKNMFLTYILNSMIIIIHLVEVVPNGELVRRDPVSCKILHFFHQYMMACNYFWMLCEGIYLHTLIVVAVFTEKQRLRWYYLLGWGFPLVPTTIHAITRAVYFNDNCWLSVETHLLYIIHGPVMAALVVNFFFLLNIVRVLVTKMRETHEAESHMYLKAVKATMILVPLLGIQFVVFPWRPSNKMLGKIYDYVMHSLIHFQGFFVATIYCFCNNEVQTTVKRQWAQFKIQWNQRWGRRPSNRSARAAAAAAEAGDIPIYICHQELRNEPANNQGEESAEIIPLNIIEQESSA
In short: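 cAMP induction, read by AlphaScreen after lysis, gives EC50 values via 4PL curve fitting. Peptides were applied at rising concentrations for 15 min at 37 °C, with IBMX and 0.1% casein in HEPES-buffered Tyrode pH 7.4, to COS7 cells (no endogenous RAMPs) stably expressing human CTR2.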

[2] = Assessment of physical stability (Thioflavin T fibrillation); type: physicochemical; set-up: key: FND = fibrillation not detected; FD = fibrillation detected; details: 1 mg/ml, 40° C., ThT; for Fibrillation pH 4.0 (Ac): 50 mM acetate buffer pH 4.0, 96 hours; for Fibrillation pH 7.0 (His): 50 mM histidine buffer pH 7.0, 96 hours; for Fibrillation pH 7.0 (Phos.): 50 mM phosphate buffer pH 7.0, 96 hours
In short: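 Fibrillation lag-time, in hours, taken where regressions of the initial stable phase and the growth phase intersect. ThT (40 μM) fluorescence monitored at 40 °C for 96 h, 10-min reads each preceded by 300 s mixing. Peptide at 1 mg/ml in 50 mM buffers: phosphate or histidine pH 7.0, acetate pH 4.0.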

[3] = target: T2, human amylin receptor 3 (hAMYR3), hCTR2 co-expressed with hRAMP3 (Homo sapiens, UniProt O60896+P30988); test: hAMYR3 cAMP assay (AlphaScreen) in COS7 cells; type: cell-based; details: cAMP induction, COS7 cells expressing hAMYR3; Table 1; read-out: hAMYR3 EC50
T2 construct: expressed in transfected cells
T2 sequence (P30988 25-474): T1 sequence (P30988 25-474)
T2 sequence (O60896 24-148 partner): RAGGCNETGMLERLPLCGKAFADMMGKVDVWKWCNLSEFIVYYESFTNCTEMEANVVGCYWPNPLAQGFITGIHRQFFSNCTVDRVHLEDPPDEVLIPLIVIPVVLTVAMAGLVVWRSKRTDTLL
In short: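 EC50 values derive from 4PL curve fits of cAMP (AlphaScreen) in lysates of RAMP-naive COS7 cells stably carrying hCTR2 plus hRAMP3. Peptide dilution series were applied for 15 min at 37 °C in pH 7.4 Tyrode buffer containing 100 µM IBMX and 0.1% casein.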

[4] = Assessment of chemical stability (RP-HPLC normalized purity); type: physicochemical; details: 7 days, 40° C., Table 1
In short: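 Purity after 7 days at 40° C is expressed relative to T=0 (set to 100) for each pH. Samples at 0.2 mg/ml, pH 4, 6, 7.5 or 9, analyzed by RP-HPLC with UV 220 nm on C8 (ammonium formate) or C18 (TFA) gradients.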

Compound | EC50 [1] | Fibrillation pH 4.0 (Ac) [2] | Fibrillation pH 7.0 (His) [2] | Fibrillation pH 7.0 (Phos.) [2] | EC50 [3] | Normalized purity after 7 days, 40° C., pH 4 ([4]; pH 4, 0.2 mg/ml) | Normalized purity after 7 days, 40° C., pH 6 ([4]; pH 6, 0.2 mg/ml) | Normalized purity after 7 days, 40° C., pH 7.5 ([4]; pH 7.5, 0.2 mg/ml) | Normalized purity after 7 days, 40° C., pH 9 ([4]; pH 9, 0.2 mg/ml)
CC[C@H](C)[C@@H](C(=O)N[C@@H](CC(C)C)C(=O)N[C@@H](CO)C(=O)N[C@@H](CO)C(=O)N[C@H](C(=O)N[C@@H](CCC(=O)O)C(=O)N[C@H](C(=O)NCC(=O)N[C@@H](CO)C(=O)N[C@@H](CC(N)=O)C(=O)N[C@H](C(=O)N1C[C@H](O)C[C@H]1C(N)=O)[C@@H](C)O)C(C)C)[C@@H](C)O)N(C)C(=O)[C@H](C)NC(=O)CN(C)C(=O)[C@H](Cc1ccccc1)NC(=O)[C@H](CO)NC(=O)[C@H](CO)NC(=O)[C@H](CCCNC(=N)N)NC(=O)[C@H](CCCCN)NC(=O)[C@H](CC(C)C)NC(=O)[C@H](Cc1ccccc1)NC(=O)[C@H](Cc1c[nH]cn1)NC(=O)[C@H](C)NC(=O)[C@H](CC(C)C)NC(=O)[C@H](CCCNC(=N)N)NC(=O)[C@H](CCC(=O)O)NC(=O)[C@@H](NC(=O)[C@H](C)NC(=O)[C@@H]1CSSC[C@H](NC(=O)[C@H](CCCNC(=N)N)NC(=O)CC[C@H](NC(=O)CCCCCCCCCCCCCCCCCCC(=O)O)C(=O)O)C(=O)NCC(=O)N[C@@H]([C@@H](C)O)C(=O)N[C@@H](C)C(=O)N[C@@H]([C@@H](C)O)C(=O)N1)[C@@H](C)O [Compound 19, [19CD]-isoGlu-R-C( )-GTAT-C( )-ATERLAHFLKRSSF-Gly(Me)-A-Ile(Me)-LSSTEVGSNT-Hyp-NH2] ({C20 diacid-γGlu}-RCGTATCATERLAHFLKRSSF[Sar]A[NMeI]LSSTEVGSNT[Hyp]-NH2; disulfide 2-7) | 0.16 nM | FND | FND | FND | 0.28 nM | A (A = >90%) | A (A = >90%) | A (A = >90%) | C (C = <70%)
CC[C@H](C)[C@@H](C(=O)N[C@@H](CC(C)C)C(=O)N[C@@H](CO)C(=O)N[C@@H](CO)C(=O)N[C@H](C(=O)N[C@@H](CCC(=O)O)C(=O)N[C@H](C(=O)NCC(=O)N[C@@H](CO)C(=O)N[C@@H](CCC(=O)O)C(=O)N[C@H](C(=O)N1CCC[C@H]1C(N)=O)[C@@H](C)O)C(C)C)[C@@H](C)O)N(C)C(=O)[C@H](C)NC(=O)CN(C)C(=O)[C@H](Cc1ccccc1)NC(=O)[C@H](CO)NC(=O)[C@@H](NC(=O)[C@H](CCCNC(=N)N)NC(=O)[C@H](Cc1c[nH]cn1)NC(=O)[C@H](CC(C)C)NC(=O)[C@H](Cc1ccccc1)NC(=O)[C@H](Cc1c[nH]cn1)NC(=O)[C@H](C)NC(=O)[C@H](CC(C)C)NC(=O)[C@H](CCCNC(=N)N)NC(=O)[C@H](CCC(N)=O)NC(=O)[C@@H](NC(=O)[C@H](C)NC(=O)[C@@H]1CSSC[C@H](NC(=O)[C@H](CCCNC(=N)N)NC(=O)CC[C@H](NC(=O)CCCCCCCCCCCCCCCCCCC(=O)O)C(=O)O)C(=O)N[C@@H](CC(N)=O)C(=O)N[C@@H]([C@@H](C)O)C(=O)N[C@@H](C)C(=O)N[C@@H]([C@@H](C)O)C(=O)N1)[C@@H](C)O)C(C)C [Compound 21, [19CD]-isoGlu-R-C( )-NTAT-C( )-ATQRLAHFLHRVSF-Gly(Me)-A-Ile(Me)-LSSTEVGSETP-NH2] ({C20 diacid-γGlu}-RCNTATCATQRLAHFLHRVSF[Sar]A[NMeI]LSSTEVGSETP-NH2; disulfide 2-7) | 0.12 nM | FND | FD | FD | 0.23 nM | – | – | – | –
CC[C@H](C)[C@@H](C(=O)N[C@@H](CC(C)C)C(=O)N[C@@H](CO)C(=O)N[C@@H](CO)C(=O)N[C@H](C(=O)N[C@@H](CC(=O)O)C(=O)N[C@H](C(=O)NCC(=O)N[C@@H](CO)C(=O)N[C@@H](CC(=O)O)C(=O)N[C@H](C(=O)N1CCC[C@H]1C(N)=O)[C@@H](C)O)C(C)C)[C@@H](C)O)N(C)C(=O)[C@H](C)NC(=O)CN(C)C(=O)[C@H](Cc1ccccc1)NC(=O)[C@H](CO)NC(=O)[C@H](CO)NC(=O)[C@H](CCCNC(=N)N)NC(=O)[C@H](Cc1c[nH]cn1)NC(=O)[C@H](CC(C)C)NC(=O)[C@H](Cc1ccccc1)NC(=O)[C@H](Cc1c[nH]cn1)NC(=O)[C@H](C)NC(=O)[C@H](CC(C)C)NC(=O)[C@H](CCCNC(=N)N)NC(=O)[C@H](CC(=O)O)NC(=O)[C@@H](NC(=O)[C@H](C)NC(=O)[C@@H]1CSSC[C@H](NC(=O)[C@H](CCCNC(=N)N)NC(=O)CC[C@H](NC(=O)CCCCCCCCCCCCCCCCCCC(=O)O)C(=O)O)C(=O)N2CCC[C@H]2C(=O)N[C@@H]([C@@H](C)O)C(=O)N[C@@H](C)C(=O)N[C@@H]([C@@H](C)O)C(=O)N1)[C@@H](C)O [Compound 27, [19CD]-isoGlu-R-C( )-PTAT-C( )-ATDRLAHFLHRSSF-Gly(Me)-A-Ile(Me)-LSSTDVGSDTP-NH2] ({C20 diacid-γGlu}-RCPTATCATDRLAHFLHRSSF[Sar]A[NMeI]LSSTDVGSDTP-NH2; disulfide 2-7) | 0.063 nM | FD | FD | FD | 0.16 nM | – | – | – | –
CC[C@H](C)[C@@H](C(=O)N[C@@H](CC(C)C)C(=O)N[C@@H](CO)C(=O)N[C@@H](CO)C(=O)N[C@H](C(=O)N[C@@H](CCC(=O)O)C(=O)N[C@H](C(=O)NCC(=O)N[C@@H](CO)C(=O)N[C@@H](CO)C(=O)N[C@H](C(=O)N1C[C@H](O)C[C@H]1C(N)=O)[C@@H](C)O)C(C)C)[C@@H](C)O)N(C)C(=O)[C@H](C)NC(=O)CN(C)C(=O)[C@H](Cc1ccccc1)NC(=O)[C@H](CO)NC(=O)[C@H](CO)NC(=O)[C@H](CCCNC(=N)N)NC(=O)[C@H](Cc1c[nH]cn1)NC(=O)[C@H](CC(C)C)NC(=O)[C@H](Cc1ccccc1)NC(=O)[C@H](Cc1c[nH]cn1)NC(=O)[C@H](C)NC(=O)[C@H](CC(C)C)NC(=O)[C@H](CCCNC(=N)N)NC(=O)[C@H](CCC(=O)O)NC(=O)[C@@H](NC(=O)[C@H](C)NC(=O)[C@@H]1CSSC[C@H](NC(=O)[C@H](CCCNC(=N)N)NC(=O)CC[C@H](NC(=O)CCCCCCCCCCCCCCCCCCC(=O)O)C(=O)O)C(=O)NCC(=O)N[C@@H]([C@@H](C)O)C(=O)N[C@@H](C)C(=O)N[C@@H]([C@@H](C)O)C(=O)N1)[C@@H](C)O [Compound 30, [19CD]-isoGlu-R-C( )-GTAT-C( )-ATERLAHFLHRSSF-Gly(Me)-A-Ile(Me)-LSSTEVGSST-Hyp-NH2] ({C20 diacid-γGlu}-RCGTATCATERLAHFLHRSSF[Sar]A[NMeI]LSSTEVGSST[Hyp]-NH2; disulfide 2-7) | 0.07 nM | FND | FD | FD | 0.12 nM | – | – | – | –
CC[C@H](C)[C@@H](C(=O)N[C@@H](CC(C)C)C(=O)N[C@@H](CO)C(=O)N[C@@H](CO)C(=O)N[C@H](C(=O)N[C@@H](CCC(=O)O)C(=O)N[C@H](C(=O)NCC(=O)N[C@@H](CO)C(=O)N[C@@H](Cc1ccccc1)C(=O)N[C@H](C(=O)N1C[C@H](O)C[C@H]1C(N)=O)[C@@H](C)O)C(C)C)[C@@H](C)O)N(C)C(=O)[C@H](C)NC(=O)CN(C)C(=O)[C@H](Cc1ccccc1)NC(=O)[C@H](CO)NC(=O)[C@H](CO)NC(=O)[C@H](CCCNC(=N)N)NC(=O)[C@H](CCC(N)=O)NC(=O)[C@H](CC(C)C)NC(=O)[C@H](Cc1ccccc1)NC(=O)[C@H](Cc1c[nH]cn1)NC(=O)[C@H](C)NC(=O)[C@H](CC(C)C)NC(=O)[C@H](CCCNC(=N)N)NC(=O)[C@H](CCC(=O)O)NC(=O)[C@@H](NC(=O)[C@H](C)NC(=O)[C@@H]1CSSC[C@H](NC(=O)[C@H](CCCNC(=N)N)NC(=O)CC[C@H](NC(=O)CCCCCCCCCCCCCCCCCCC(=O)O)C(=O)O)C(=O)NCC(=O)N[C@@H]([C@@H](C)O)C(=O)N[C@@H](C)C(=O)N[C@@H]([C@@H](C)O)C(=O)N1)[C@@H](C)O [Compound 32, [19CD]-isoGlu-R-C( )-GTAT-C( )-ATERLAHFLQRSSF-Gly(Me)-A-Ile(Me)-LSSTEVGSFT-Hyp-NH2] ({C20 diacid-γGlu}-RCGTATCATERLAHFLQRSSF[Sar]A[NMeI]LSSTEVGSFT[Hyp]-NH2; disulfide 2-7) | 0.17 nM | FND | FD | FD | 0.23 nM | – | – | – | –
